Measured values from patent publication US8785457B2 (Cellzome Limited, priority 2009, dated 2014).
Where two headings read alike, the source gives them in different places.

Legend:
[1] = biological target: T1, mTOR (Homo sapiens, UniProt P42345); assay: mTOR kinobeads assay (competitive binding in Jurkat cell lysate, immunodetection); settings: kinobeads assay
T1 construct: endogenous in cells; host or cells: Jurkat, clone E6-1 (ATCC TIB-152) cell lysate
Method: The compounds of the present invention as described were tested in the mTOR kinobeads assay as described below. […] After the incubation time the beads with captured proteins were separated from the lysate. Bound proteins were then eluted and the presence of mTOR, PI3K delta (PI3 Kd) and DNA-dependent protein kinase (DNA-PK) was detected and quantified using a specific antibody in a dot blot procedure and the Odyssey infrared detection system.
(§1) The kinobeads assay was performed as a competitive binding assay in which test compounds were added directly into a cell lysate. Test compounds (at various concentrations) and the affinity matrix (beads with immobilized phenylmorpholin-chromen ligand) were added to cell lysate aliquots and allowed to bind to the proteins contained in the lysate sample. After the incubation time the beads with captured proteins were separated from the lysate. Bound proteins were then eluted and the presence of kinases was detected and quantified using a multiplexed immunodetection format. Dose response curves for individual kinases were generated and IC50 values calculated.
(§2) 5×DP buffer: 250 mM Tris-HCl pH 7.4, 25% Glycerol, 7.5 mM MgCl2, 750 mM NaCl, 5 mM Na3VO4, filter the 5×-lysis buffer through 0.22 μm filter and store in aliquots at −80° C. The 5×DP buffer is diluted to 1×DP buffer containing 1 mM DTT and 25 mM NaF.
(§3) Stock solutions of test compounds were prepared in DMSO. In a 96 well plate 30 μl solution of diluted test compounds at 5 mM in DMSO were prepared. Starting with this solution a 1:3 dilution series (9 steps) was prepared. For control experiments (no test compound) a buffer containing 2% DMSO was used.
Jurkat cells were homogenized in a Potter S homogenizer in lysis buffer: 50 mM Tris-HCl, 0.8% NP40, 5% glycerol, 150 mM NaCl, 1.5 mM MgCl2, 25 mM NaF, 1 mM sodium vanadate, 1 mM DTT, pH 7.5. […] The material was dounced 10 times using a mechanized POTTER S, transferred to 50 ml falcon tubes, incubated for 30 minutes on ice and spun down for 10 min at 20,000 g at 4° C. (10,000 rpm in Sorvall SLA600, precooled). […] (33.500 rpm in Ti50.2, precooled). The supernatant was transferred again to a fresh 50 ml falcon tube, the protein concentration was determined by a Bradford assay (BioRad) and samples containing 50 mg of protein per aliquot were prepared. The samples were immediately used for experiments or frozen in liquid nitrogen and stored frozen at −80° C.
Jurkat cell lysate (approximately 50 mg protein per plate) was thawed in a water bath at room temperature and then kept on ice. […] The diluted cell lysate was stored on ice.
Plates were sealed and incubated for two hours in a cold room on a Thermoxer with shaking (750 rpm). Afterwards the plate was washed twice with 230 μl washing buffer (1×DP 0.4% NP40). […] The eluate was frozen quickly at −80° C. and stored at −20° C.
The kinases in the eluates were detected and quantified by spotting on Nitrocellulose membranes and using a first antibody directed against the kinase of interest and a fluorescently labeled secondary antibody (anti-mouse or anti-rabbit IRDye™ antibodies from Rockland).
Afterwards the membrane was washed three times for 10 minutes with PBS buffer containing 0.1% Tween 20 at room temperature. […] Afterwards the membrane was washed three times for 10 minutes each with 1×PBS buffer containing 0.1% Tween 20 at room temperature. Then the membrane was rinsed once with PBS buffer to remove residual Tween 20. The membrane was kept in PBS buffer at 4° C. and then scanned with the Odyssey instrument. Fluorescence signals were recorded and analysed according to the instructions of the manufacturer.

[2] = biological target: T2, PI3K delta (PI3 Kd) (Homo sapiens, UniProt O00329); assay: kinobeads assay, PI3K delta; assay type: binding; settings: kinobeads assay, read-out: Inhibition values (IC50) PI3Kd
T2 construct: endogenous in cells; host or cells: Jurkat, clone E6-1 (ATCC TIB-152) cell lysate
T2 sequence (O00329 whole entry): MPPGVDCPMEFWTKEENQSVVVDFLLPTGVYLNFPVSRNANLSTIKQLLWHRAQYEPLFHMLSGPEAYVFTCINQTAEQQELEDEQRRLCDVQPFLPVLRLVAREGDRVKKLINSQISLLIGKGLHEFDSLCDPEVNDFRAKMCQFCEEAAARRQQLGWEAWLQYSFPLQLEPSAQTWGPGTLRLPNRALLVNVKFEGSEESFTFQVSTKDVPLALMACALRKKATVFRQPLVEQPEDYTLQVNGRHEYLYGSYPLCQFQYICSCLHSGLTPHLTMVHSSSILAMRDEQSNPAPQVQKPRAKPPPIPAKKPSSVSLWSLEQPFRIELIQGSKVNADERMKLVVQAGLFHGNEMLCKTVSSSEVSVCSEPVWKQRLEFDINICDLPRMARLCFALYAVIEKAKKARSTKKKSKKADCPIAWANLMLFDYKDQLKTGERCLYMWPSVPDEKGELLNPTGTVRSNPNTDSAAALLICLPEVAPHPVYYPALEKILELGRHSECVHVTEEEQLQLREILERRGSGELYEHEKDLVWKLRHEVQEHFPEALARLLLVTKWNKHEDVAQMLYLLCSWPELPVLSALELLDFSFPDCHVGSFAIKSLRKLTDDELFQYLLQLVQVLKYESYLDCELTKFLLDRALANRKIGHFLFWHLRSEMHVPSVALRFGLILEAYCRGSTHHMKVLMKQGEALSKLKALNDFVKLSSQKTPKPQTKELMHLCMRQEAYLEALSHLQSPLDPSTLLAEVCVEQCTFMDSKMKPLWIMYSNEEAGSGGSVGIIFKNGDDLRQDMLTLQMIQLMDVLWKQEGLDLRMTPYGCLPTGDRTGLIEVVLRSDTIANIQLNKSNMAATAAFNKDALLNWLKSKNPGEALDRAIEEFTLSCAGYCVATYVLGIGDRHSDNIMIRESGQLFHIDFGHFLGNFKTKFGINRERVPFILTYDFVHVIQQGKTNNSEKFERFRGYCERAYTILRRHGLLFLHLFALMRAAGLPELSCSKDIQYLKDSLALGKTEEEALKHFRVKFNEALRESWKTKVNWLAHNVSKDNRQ
T2 sequence (P27986 whole entry partner): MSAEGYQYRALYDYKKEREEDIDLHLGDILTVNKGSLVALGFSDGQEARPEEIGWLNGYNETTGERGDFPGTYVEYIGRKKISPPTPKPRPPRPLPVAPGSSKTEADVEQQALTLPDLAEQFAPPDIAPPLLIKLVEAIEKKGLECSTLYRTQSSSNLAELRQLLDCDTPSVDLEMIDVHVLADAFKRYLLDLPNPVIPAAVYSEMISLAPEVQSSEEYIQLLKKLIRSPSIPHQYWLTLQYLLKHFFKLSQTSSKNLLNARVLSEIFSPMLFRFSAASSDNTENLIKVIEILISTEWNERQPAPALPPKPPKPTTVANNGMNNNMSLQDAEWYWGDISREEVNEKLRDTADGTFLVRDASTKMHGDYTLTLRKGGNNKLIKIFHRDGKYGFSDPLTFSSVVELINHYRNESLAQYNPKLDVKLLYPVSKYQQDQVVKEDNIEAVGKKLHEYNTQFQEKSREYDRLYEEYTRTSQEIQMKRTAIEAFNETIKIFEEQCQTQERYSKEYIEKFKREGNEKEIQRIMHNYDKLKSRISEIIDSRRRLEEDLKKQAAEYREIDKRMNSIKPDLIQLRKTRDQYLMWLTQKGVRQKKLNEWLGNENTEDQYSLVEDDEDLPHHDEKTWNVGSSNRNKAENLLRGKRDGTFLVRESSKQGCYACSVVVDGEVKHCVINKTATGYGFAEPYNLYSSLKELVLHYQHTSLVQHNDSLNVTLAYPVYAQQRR
Method: (§4) The compounds of the present invention as described were tested in the mTOR kinobeads assay as described below. Briefly, test compounds (at various concentrations) and the affinity matrix with the immobilized phenylmorpholin-chromen ligand (8-(4-aminomethyl-phenyl)-2-morpholin-4-yl-chromen-4-one) were added to cell lysate aliquots and allowed to bind to the proteins in the lysate sample. After the incubation time the beads with captured proteins were separated from the lysate. Bound proteins were then eluted and the presence of mTOR, PI3K delta (PI3 Kd) and DNA-dependent protein kinase (DNA-PK) was detected and quantified using a specific antibody in a dot blot procedure and the Odyssey infrared detection system. Kinobeads assays for PI3K (WO-A 2008/015013) and for kinase selectivity profiling (WO 2006/134056) have been previously described.
as §1
(§5) The affinity matrix (beads with immobilized phenylmorpholin-chromen ligand) was washed two times with 15 ml of 1×DP buffer containing 0.2% NP40 (IGEPAL® CA-630, Sigma, #13021) and then resupended in 5.5 ml of 1×DP buffer containing 0.2% NP40 (10% beads slurry).
as §2
as §3, with “used. Compound CZC00018052 served as a positive control (PI-103; Calbiochem catalogue number 528100).” for “used.”
(§6) Jurkat cells (ATCC catalogue number TIB-152 Jurkat, clone E6-1) were grown in 1 liter Spinner flasks (Integra Biosciences, #182101) in suspension in RPMI 1640 medium (Invitrogen, #21875-034) supplemented with 10% Fetal Bovine Serum (Invitrogen) at a density between 0.15×10^6 and 1.2×10^6 cells/ml. Cells were harvested by centrifugation, washed once with 1×PBS buffer (Invitrogen, #14190-094) and cell pellets were frozen in liquid nitrogen and subsequently stored at −80° C.
(§7) Jurkat cells were homogenized in a Potter S homogenizer in lysis buffer: 50 mM Tris-HCl, 0.8% NP40, 5% glycerol, 150 mM NaCl, 1.5 mM MgCl2, 25 mM NaF, 1 mM sodium vanadate, 1 mM DTT, pH 7.5. One complete EDTA-free tablet (protease inhibitor cocktail, Roche Diagnostics, 1873580) per 25 ml buffer was added. The material was dounced 10 times using a mechanized POTTER S, transferred to 50 ml falcon tubes, incubated for 30 minutes on ice and spun down for 10 min at 20,000 g at 4° C. (10,000 rpm in Sorvall SLA600, precooled). The supernatant was transferred to an ultracentrifuge (UZ)-polycarbonate tube (Beckmann, 355654) and spun for 1 hour at 100.000 g at 4° C. (33.500 rpm in Ti50.2, precooled). The supernatant was transferred again to a fresh 50 ml falcon tube, the protein concentration was determined by a Bradford assay (BioRad) and samples containing 50 mg of protein per aliquot were prepared. The samples were immediately used for experiments or frozen in liquid nitrogen and stored frozen at −80° C. […]

[3] = biological target: T3, DNA-dependent protein kinase (DNA-PK) (Homo sapiens, UniProt P78527); assay: kinobeads assay, DNA-PK; assay type: binding; settings: kinobeads assay
T3 construct: endogenous in cells; host or cells: Jurkat, clone E6-1 (ATCC TIB-152) cell lysate
Method: as §4, §1, §5, §2
as §3, with “used. Compound CZC00018052 served as a positive control (PI-103; Calbiochem catalogue number 528100).” for “used.”
as §6, §7

[4] = biological target: T4, PI3 Kgamma (PI3 Kg) (Homo sapiens, UniProt P48736); assay: kinobeads assay, PI3Kgamma; assay type: binding; settings: kinobeads assay, Table 6; read-out: Inhibition values (IC50) PI3Kg
T4 construct: endogenous in cells; host or cells: cell lysate
T4 sequence (P48736 whole entry): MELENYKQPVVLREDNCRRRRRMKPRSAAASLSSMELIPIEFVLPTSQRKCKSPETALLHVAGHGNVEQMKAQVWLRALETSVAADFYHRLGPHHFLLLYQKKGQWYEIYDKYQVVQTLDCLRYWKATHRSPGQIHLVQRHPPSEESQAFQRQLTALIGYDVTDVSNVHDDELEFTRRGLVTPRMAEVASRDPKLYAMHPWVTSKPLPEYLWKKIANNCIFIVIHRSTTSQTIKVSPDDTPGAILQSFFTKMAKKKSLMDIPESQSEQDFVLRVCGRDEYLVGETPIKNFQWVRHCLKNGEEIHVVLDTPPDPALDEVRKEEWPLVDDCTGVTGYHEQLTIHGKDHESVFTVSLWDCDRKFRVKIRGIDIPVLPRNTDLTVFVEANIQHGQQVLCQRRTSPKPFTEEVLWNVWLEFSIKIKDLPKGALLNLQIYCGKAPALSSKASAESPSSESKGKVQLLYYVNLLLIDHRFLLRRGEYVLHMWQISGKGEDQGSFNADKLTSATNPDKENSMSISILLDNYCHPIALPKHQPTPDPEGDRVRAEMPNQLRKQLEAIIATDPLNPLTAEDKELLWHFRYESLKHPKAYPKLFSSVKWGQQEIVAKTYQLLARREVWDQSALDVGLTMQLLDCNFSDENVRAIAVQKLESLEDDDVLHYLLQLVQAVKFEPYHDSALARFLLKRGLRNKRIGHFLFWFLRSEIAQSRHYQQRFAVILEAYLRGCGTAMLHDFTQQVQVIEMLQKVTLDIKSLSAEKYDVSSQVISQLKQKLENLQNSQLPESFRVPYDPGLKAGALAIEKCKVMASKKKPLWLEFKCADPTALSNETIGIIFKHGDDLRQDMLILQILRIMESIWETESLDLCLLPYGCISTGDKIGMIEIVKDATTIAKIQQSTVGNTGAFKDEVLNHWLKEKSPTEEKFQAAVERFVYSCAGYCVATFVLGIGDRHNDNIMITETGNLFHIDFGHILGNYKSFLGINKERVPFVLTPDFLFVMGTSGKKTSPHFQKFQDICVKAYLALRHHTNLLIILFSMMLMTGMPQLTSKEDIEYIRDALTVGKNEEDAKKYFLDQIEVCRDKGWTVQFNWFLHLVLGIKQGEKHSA
Method: as §1
(§8) The effect of the compounds on the kinases PI3Kalpha (PI3Ka), PI3 Kbeta (PI3 Kb) and PI3 Kgamma (PI3 Kg) were tested in the kinobeads assay as described (WO-A 2009/098021).

[5] = biological target: T5, PI3Kalpha (PI3Ka) (Homo sapiens, UniProt P42336); assay: kinobeads assay, PI3Kalpha; assay type: binding; settings: kinobeads assay, Table 6
T5 construct: endogenous in cells; host or cells: cell lysate
T5 sequence (P42336 whole entry): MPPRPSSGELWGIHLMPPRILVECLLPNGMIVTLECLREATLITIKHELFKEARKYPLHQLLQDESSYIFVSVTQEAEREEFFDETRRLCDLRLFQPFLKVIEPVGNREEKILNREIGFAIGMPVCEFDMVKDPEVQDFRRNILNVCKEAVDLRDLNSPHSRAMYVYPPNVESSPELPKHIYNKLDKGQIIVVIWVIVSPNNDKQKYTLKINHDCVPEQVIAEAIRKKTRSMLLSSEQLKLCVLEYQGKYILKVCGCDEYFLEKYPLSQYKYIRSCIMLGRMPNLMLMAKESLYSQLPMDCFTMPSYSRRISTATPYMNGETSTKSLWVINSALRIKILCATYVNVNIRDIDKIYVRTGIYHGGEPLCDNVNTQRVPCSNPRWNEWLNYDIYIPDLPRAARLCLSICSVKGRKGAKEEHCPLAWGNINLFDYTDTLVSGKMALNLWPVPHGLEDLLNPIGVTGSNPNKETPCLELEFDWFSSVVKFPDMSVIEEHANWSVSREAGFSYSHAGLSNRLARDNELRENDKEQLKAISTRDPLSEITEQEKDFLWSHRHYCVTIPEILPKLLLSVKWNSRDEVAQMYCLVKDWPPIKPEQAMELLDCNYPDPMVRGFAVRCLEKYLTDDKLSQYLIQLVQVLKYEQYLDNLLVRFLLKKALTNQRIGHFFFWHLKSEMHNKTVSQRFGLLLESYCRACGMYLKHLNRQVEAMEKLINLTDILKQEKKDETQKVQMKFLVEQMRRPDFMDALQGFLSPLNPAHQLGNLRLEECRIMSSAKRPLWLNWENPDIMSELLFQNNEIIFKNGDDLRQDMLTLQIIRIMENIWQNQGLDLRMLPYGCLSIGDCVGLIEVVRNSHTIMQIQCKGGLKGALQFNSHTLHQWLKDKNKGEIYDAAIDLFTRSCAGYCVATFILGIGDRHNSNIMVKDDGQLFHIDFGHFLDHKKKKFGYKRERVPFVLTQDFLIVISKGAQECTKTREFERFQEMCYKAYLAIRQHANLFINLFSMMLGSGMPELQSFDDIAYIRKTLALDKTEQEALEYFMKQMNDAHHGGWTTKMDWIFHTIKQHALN
T5 sequence (P27986 whole entry partner): as the sequence (P27986 whole entry partner) above
Method: as §1, §8

[6] = Table 4, read-out: Inhibition values (IC50) mTor
[7] = Table 6, read-out: Inhibition values (IC50) mTOR
[8] = Table 4, read-out: Inhibition values (IC50) DNA-PK
[9] = Table 6, read-out: Inhibition values (IC50) DNAPK

SMILES	IC50 [1, 6] [µM]	IC50 [1, 7] [µM]	IC50 ([2]; Table 4) [µM]	IC50 ([2]; Table 6) [µM]	IC50 [3, 8] [µM]	IC50 [3, 9] [µM]	IC50 [4] [µM]	Inhibition values (IC50) PI3Ka [5]
C[C@H]1COCCN1c1nc(-c2ccc(NC(N)=O)cc2)nc2c1CN(C=O)C2 [Example 6, (S)-1-(4-(6-formyl-4-(3-methylmorpholino)-6,7-dihydro-5H-pyrrolo[3,4-d]pyrimidin-2-yl)phenyl)urea]	0.1 to 1	0.1 to 1	1 to 10	1 to 10	> 10	> 10	–	–
CNC(=O)Nc1ccc(-c2nc3c(c(N4CCOC[C@@H]4C)n2)CNCC3)cc1 [Example 10, (S)-1-methyl-3-(4-(4-(3-methylmorpholino)-5,6,7,8-tetrahydropyrido[4,3-d]pyrimidin-2-yl)phenyl)urea]	0.1 to 1	0.1 to 1	> 10	> 10	> 10	> 10	–	–
CCNC(=O)Nc1ccc(-c2nc3c(c(N4CCOCC4)n2)CNC3)cc1 [Example 14, 1-ethyl-3-(4-(4-morpholino-6,7-dihydro-5H-pyrrolo[3,4-d]pyrimidin-2-yl)phenyl)urea]	–	–	1 to 10	1 to 10	> 10	> 10	–	–
CCNC(=O)Nc1ccc(-c2nc3c(c(N4CCOC[C@@H]4C)n2)CCN(Cc2ccc(F)cc2)C3)cc1 [Example 31, (S)-1-ethyl-3-(4-(7-(4-fluorobenzyl)-4-(3-methylmorpholino)-5,6,7,8-tetrahydropyrido[3,4-d]pyrimidin-2-yl)phenyl)urea]	0.1 to 1	1 to 10	> 10	> 10	> 10	> 10	–	–
C[C@H]1COCCN1c1nc(-c2ccc(NC(=O)NCCN(C)C)cc2)nc2c1CN(C)C2 [Example 54, (S)-1-(2-(dimethylamino)ethyl)-3-(4-(6-methyl-4-(3-methylmorpholino)-6,7-dihydro-5H-pyrrolo[3,4-d]pyrimidin-2-yl)phenyl)urea]	0.1 to 1	0.1 to 1	–	–	> 10	> 10	1 to 10	–
COCCCNC(=O)Nc1ccc(-c2nc3c(c(N4CCOC[C@@H]4C)n2)CN(C)C3)cc1 [Example 53, (S)-1-(3-methoxypropyl)-3-(4-(6-methyl-4-(3-methylmorpholino)-6,7-dihydro-5H-pyrrolo[3,4-d]pyrimidin-2-yl)phenyl)urea]	0.1 to 1	0.1 to 1	–	–	> 10	> 10	–	–
CNC(=O)Nc1ccc(-c2nc3c(c(N4CCOC[C@@H]4C)n2)CNC3)cc1 [Example 4, (S)-1-methyl-3-(4-(4-(3-methylmorpholino)-6,7-dihydro-5H-pyrrolo[3,4-d]pyrimidin-2-yl)phenyl)urea]	< 0.1	< 0.1	1 to 10	1 to 10	> 10	> 10	–	–
C[C@H]1COCCN1c1nc(-c2ccc(NC(=O)NCCCO)cc2)nc2c1CN(C)C2 [Example 51, (S)-1-(3-hydroxypropyl)-3-(4-(6-methyl-4-(3-methylmorpholino)-6,7-dihydro-5H-pyrrolo[3,4-d]pyrimidin-2-yl)phenyl)urea]	< 0.1	< 0.1	–	–	> 10	> 10	–	–
C[C@H]1COCCN1c1nc(-c2ccc(NC(=O)NC3CC3)cc2)nc2c1CNC2 [Example 3, (S)-1-cyclopropyl-3-(4-(4-(3-methylmorpholino)-6,7-dihydro-5H-pyrrolo[3,4-d]pyrimidin-2-yl)phenyl)urea]	< 0.1	< 0.1	> 10	> 10	> 10	> 10	–	–
C[C@H]1COCCN1c1nc(-c2ccc(NC(=O)NC3CC3)cc2)nc2c1CN(CC1CCN(C(=O)OC(C)(C)C)CC1)C2 [Example 128, (S)-tert-butyl 4-((2-(4-(3-cyclopropylureido)phenyl)-4-(3-methylmorpholino)-5H-pyrrolo[3,4-d]pyrimidin-6(7H)-yl)methyl)piperidine-1-carboxylate]	–	0.1 to 1	–	> 10	–	–	> 10	D (D >10 μM)
CCNC(=O)Nc1ccc(-c2nc3c(c(N4CCOC[C@@H]4C)n2)CNC3)cc1 [Example 7, (S)-1-ethyl-3-(4-(4-(3-methylmorpholino)-6,7-dihydro-5H-pyrrolo[3,4-d]pyrimidin-2-yl)phenyl)urea]	< 0.1	< 0.1	> 10	> 10	> 10	> 10	–	–
C[C@@H]1COCCN1c1nc(-c2ccc(NC(=O)NC3CC3)cc2)nc2c1CNC2 [Example 9, (R)-1-cyclopropyl-3-(4-(4-(3-methylmorpholino)-6,7-dihydro-5H-pyrrolo[3,4-d]pyrimidin-2-yl)phenyl)urea]	< 0.1	< 0.1	> 10	> 10	> 10	> 10	–	–
